Values after ≈ are worked out from the molar mass of the structure shown.
Key:
[1] = Solubility and pKa of itraconazole; assay type: physicochemical; settings: pH 1.2 dissolution media, simulated gastric fluid, thermodynamic from solid, crystalline ITZ, read-out: Equilibrium solubility Ceq
Source text: This study compares the effectiveness of fine emulsion templating and co-solvent approaches with the URF process to enhance the wetting and solubility of the model drug, itraconazole (ITZ). Itraconazole (ITZ) is a weakly basic broad-spectrum triazole antifungal agent indicated in the treatment of both local and systemic fungal infections; however, successful treatment of infections is often complicated by its low aqueous solubility resulting in variable absorption and plasma concentration. Classified as a BCS class II compound, ITZ has a strongly pH dependent solubility (pKa˜3.7) with reported solubilities in acidic and neutral media of approximately 4 μg/mL and 1 ng/mL, respectively. While limited by poor aqueous solubility, the highly lipophilic nature of the compound allows for high permeability of intestinal membranes. […]

[2] = cited from earlier work
[3] = X-ray photoelectron spectroscopy (XPS) of particle surface composition; assay type: physicochemical
Protocol: […]
Powders containing ITZ were prepared according to procedures outlined in Examples 1, 2, 3, and 4 with the same formulations. The elemental composition of the particle surfaces was determined using X-ray photoelectron spectroscopy (XPS). […] Percent surface excess of ITZ was calculated by deducting 50% from the percent surface compositions of ITZ while percent surface excess of lecithin was calculated by deducting 25% from the percent surface compositions of lecithin. […]

Structure (SMILES): CCC(C)n1ncn(-c2ccc(N3CCN(c4ccc(OCC5COC(Cn6cncn6)(c6ccc(Cl)cc6Cl)O5)cc4)CC3)cc2)c1=O (stereo not shown) [ITZ, itraconazole]
- solubility thermodynamic [1]: 5 µg/mL (≈ 7.09 µM)
- pKa [2]: ~3.7
- Mass Concentration Chlorine, SOL [3]: 9.54%
- Surface composition ITZ, SOL [3]: 100.0%

Source: US20120251595A1, “EMULSION TEMPLATE METHOD TO FORM SMALL PARTICLES OF HYDROPHOBIC AGENTS WITH SURFACE ENRICHED HYDROPHILICITY BY ULTRA RAPID FREEZING” (BOARD OF REGENTS, THE UNIVERSITY OF TEXAS SYSTEM, priority 2009, published 2012)
